# Several values for one entry are separate records, joined by “and”; a condition that tells them apart may be missing. Identical values can stand only once. Like-named read-outs stand apart in the source and are kept apart here.
# How the values were obtained:
# STZ-diabetic rats [1] = experiment: STZ-rat model, tactile stimuli (von Frey filaments); type: in vivo
# Method: (§1) The compound of Example 1 is also tested in an STZ-rat model of neuropathic pain. Briefly, adult female rats are made diabetic by treatment with streptozotocin (STZ), an alkylating neoplastic agent which is particularly toxic to the insulin-producing beta cells of the pancreas. The resulting type-I diabetes in the rats leads to the development of diabetic neuropathy over a 3 to 6-week period. […] Once diabetic neuropathy has been induced, the rats may be treated to determine the analgesic effect of compounds.
# Paw tactile response threshold is a clinical assessment of allodynia to light touch. It can be measured using manual von Frey filaments (as described in Otto et al., Pain, 101:187-92 (2003). A series of von Frey filaments with logarithmically increasing stiffness are used, and the rats' response to each filament is observed. The results are used to calculate a 50%-withdrawal threshold (an amount of stiffness in the filament resulting in a 50% probability of withdrawal of the rat's paw).
# This test is performed using the von Frey filaments as described above.
# STZ-diabetic rats [2] = experiment: STZ-rat model, cold allodynia response; type: in vivo
# Method: as §1
# Paw cold response threshold is a clinical assessment of cold pain perception. A rigid filament with a thermoelectric cooling system is used to stimulate the plantar surface of the hind paw for 5 seconds. The stimulus is repeated ten times at 2 to 5-minute intervals. The number of paw withdrawal responses is recorded and converted to a response frequent figure (%). This procedure is repeated at a variety of temperatures. […] At a stimulus temperature of 20° C. or 15° C., the response frequency is found to be substantially the same between STZ-treated rats and control rats (from about 10-20% response). In contrast, at a stimulus temperature of 10° C. or below, there is a substantial divergence of frequency response. In control rats, a stimulus temperature of 10° C. results in about 10% response frequency, while at 5° C., this increases to about 40% response frequency. In contrast, STZ-treated rats show a response frequency of about 60% at 10° C., and about 80% at 5° C. […] A stable cold allodynia response is observed 4-12 weeks after induction of diabetes.
# The cold allodynia response test is performed at 0 hours, 1 hour, 2 hours, 4 hours and 6 hours, as described above, using a 10° C. stimulus temperature. The injection vehicle is pure polyethylene glycol-400 (PEG400).
# STZ-diabetic rats [3] = experiment: STZ-rat model, mechanical (pressure) stimuli; type: in vivo
# Method: as §1
# Paw mechanical response threshold is also a clinical assessment of allodynia to light touch, but it relies on the observed response to pressure (force) applied to a paw.
# This test is performed by measuring the static applied force threshold (pressure) for paw removal, as described above.
# ZFD rats [4] = experiment: ZFD rat model, manual von Frey (tactile); type: in vivo; set-up: unit not given here
# NR2B = experiment: CNS phosphoprotein profile, NR2B; type: in vivo; conditions: mice nucleus accumbens, 3 mg/kg, 30-60 minutes
# Method: A comprehensive molecular phosphorylation study is also carried out to examine the central nervous system (CNS) profile of the compound of Example 1. The extent of protein phosphorylation for selected key central nervous system proteins is measured in mice nucleus accumbens.
# Mice were killed 30 minutes to 2 hours post-injection by focused microwave cranial irradiation, which preserves brain phosphoprotein as it exists at the time of death. Nucleus accumbens was then dissected from each mouse brain, sliced and frozen in liquid nitrogen. Samples were further prepared for phosphoprotein analysis via SDS-PAGE electrophoresis followed by phosphoprotein-specific immunoblotting, as described in Zhu H, et al., Brain Res. 2010 Jun. 25; 1342:11-23. Phosphorylation at each site was quantified, normalized to total levels of the protein (non-phosphorylated), and expressed as percent of the level of phosphorylation in vehicle-treated control mice.
# ZFD rats [5] = experiment: ZFD rat model, paw formalin test; type: in vivo; conditions: s.c. or i.t., at the end of the study
# Text: Paw formalin test: This test enables discrimination of pain driven by primary afferent input (phase 1) versus spinal sensitization and amplifications of primary afferent input (phase 2). There is, however, no clinical equivalent to this test. The method used here is described in detail in Calcutt (2004), supra.
# C57 mice = conditions: mouse, in vivo
structure (smiles),measurement,setting,value
"O=C1CN2c3c(cccc3[C@@H]3CN(CCCOc4ccc(F)cc4)CC[C@@H]32)N1 [Example 1, (6bR,10aS)-8-(3-(4-fluorophenoxy)propyl)-6b,7,8,9,10,10a-hexahydro-1H-pyrido[3′,4′:4,5]pyrrolo[1,2,3-de]quinoxalin-2(3H)-one]",50% withdrawal threshold,"STZ-diabetic rats [1]; STZ-diabetic rats, 1 mg/kg s.c., 4 hours (peak)",about 4 g
same,50% withdrawal threshold,"STZ-diabetic rats [1]; STZ-diabetic rats, 1 mg/kg s.c., 6 hours",about 3 g
same,50% withdrawal threshold,"STZ-diabetic rats [1]; STZ-diabetic rats, 3 mg/kg s.c., 1 hours",about 6 g
same,50% withdrawal threshold,"STZ-diabetic rats [1]; STZ-diabetic rats, 3 mg/kg s.c., 2 hours (peak)",~8 g
same,50% withdrawal threshold,"STZ-diabetic rats [1]; STZ-diabetic rats, 3 mg/kg s.c., 4 hours",about 3 g
same,50% withdrawal threshold,"STZ-diabetic rats [1]; STZ-diabetic rats, 10 mg/kg s.c., 1 hour",about 9 g
same,50% withdrawal threshold,"STZ-diabetic rats [1]; STZ-diabetic rats, 10 mg/kg s.c., 2 hours (peak)",about 10 g
same,50% withdrawal threshold,"STZ-diabetic rats [1]; STZ-diabetic rats, 10 mg/kg s.c., 6 hours",about 3 g
same,50% withdrawal threshold,"STZ-diabetic rats [1]; rat, in vivo, sc, 10 mg/kg",about 7 g
same,cold response frequency,"STZ-diabetic rats [2]; 1 mg/kg s.c., 1 hour",~35%
same,cold response frequency,"STZ-diabetic rats [2]; 1 mg/kg s.c., 4 hours",about 70%
same,cold response frequency,"STZ-diabetic rats [2]; 1 mg/kg s.c., 6 hours",about 75%
same,cold response frequency,"STZ-diabetic rats [2]; 3 mg/kg s.c., 1 hour",about 10%
same,cold response frequency,"STZ-diabetic rats [2]; 3 mg/kg s.c., 4 hours",about 65%
same,cold response frequency,"STZ-diabetic rats [2]; 3 mg/kg s.c., 6 hours",75%
same,cold response frequency,"STZ-diabetic rats [2]; 10 mg/kg s.c., 1 hour",about 15%
same,cold response frequency,"STZ-diabetic rats [2]; 10 mg/kg s.c., 2 hours",about 10%
same,cold response frequency,"STZ-diabetic rats [2]; 10 mg/kg s.c., 4 hours",about 20%
same,cold response frequency,"STZ-diabetic rats [2]; 10 mg/kg s.c., 6 hours",about 40%
same,withdrawal force threshold,"STZ-diabetic rats [3]; 1 mg/kg s.c., 4 hours (peak)",about 40 g
same,withdrawal force threshold,"STZ-diabetic rats [3]; 1 mg/kg s.c., 6 hours",about 35 g
same,withdrawal force threshold,"STZ-diabetic rats [3]; 3 mg/kg s.c., 2 hours (peak)",about 45 g
same,withdrawal force threshold,"STZ-diabetic rats [3]; 3 mg/kg s.c., 6 hours",about 25 g
same,withdrawal force threshold,"STZ-diabetic rats [3]; 10 mg/kg s.c., 1 hour",about 60 g
same,withdrawal force threshold,"STZ-diabetic rats [3]; 10 mg/kg s.c., 2 hours to 4 hours",45 to 50 g
same,withdrawal force threshold,"STZ-diabetic rats [3]; 10 mg/kg s.c., 6 hours",about 35 g
same,"Manual von Frey, threshold for paw withdrawal","ZFD rats [4]; Control rats, 10 μg i.t., 0 hr",11.90
same,"Manual von Frey, threshold for paw withdrawal","ZFD rats [4]; Control rats, 10 μg i.t., 1 hr",13.90
same,"Manual von Frey, threshold for paw withdrawal","ZFD rats [4]; Control rats, 10 μg i.t., 2 hr",14.14
same,"Manual von Frey, threshold for paw withdrawal","ZFD rats [4]; Control rats, 10 μg i.t., 4 hr",13.67
same,"Manual von Frey, threshold for paw withdrawal","ZFD rats [4]; Control rats, 10 mg/kg s.c., 0 hr",13.98
same,"Manual von Frey, threshold for paw withdrawal","ZFD rats [4]; Control rats, 10 mg/kg s.c., 1 hr",12.28
same,"Manual von Frey, threshold for paw withdrawal","ZFD rats [4]; Control rats, 10 mg/kg s.c., 2 hr",13.93
same,"Manual von Frey, threshold for paw withdrawal","ZFD rats [4]; Control rats, 10 mg/kg s.c., 4 hr",13.45
same,"Manual von Frey, threshold for paw withdrawal","ZFD rats [4]; ZFD rats, 1 μg i.t., 0 hr",2.06
same,"Manual von Frey, threshold for paw withdrawal","ZFD rats [4]; ZFD rats, 1 μg i.t., 1 hr",2.28
same,"Manual von Frey, threshold for paw withdrawal","ZFD rats [4]; ZFD rats, 1 μg i.t., 4 hr",4.25
same,"Manual von Frey, threshold for paw withdrawal","ZFD rats [4]; ZFD rats, 3 μg i.t., 0 hr",5.78
same,"Manual von Frey, threshold for paw withdrawal","ZFD rats [4]; ZFD rats, 3 μg i.t., 1 hr",9.68
same,"Manual von Frey, threshold for paw withdrawal","ZFD rats [4]; ZFD rats, 3 μg i.t., 2 hr",12.11
same,"Manual von Frey, threshold for paw withdrawal","ZFD rats [4]; ZFD rats, 3 μg i.t., 4 hr",7.01
same,"Manual von Frey, threshold for paw withdrawal","ZFD rats [4]; ZFD rats, 10 μg i.t., 0 hr",1.92
same,"Manual von Frey, threshold for paw withdrawal","ZFD rats [4]; ZFD rats, 10 μg i.t., 1 hr",8.53
same,"Manual von Frey, threshold for paw withdrawal","ZFD rats [4]; ZFD rats, 10 μg i.t., 2 hr",11.57
same,"Manual von Frey, threshold for paw withdrawal","ZFD rats [4]; ZFD rats, 10 μg i.t., 4 hr",4.77
same,"Manual von Frey, threshold for paw withdrawal","ZFD rats [4]; ZFD rats, 1 mg/kg s.c., 1 hr",2.61
same,"Manual von Frey, threshold for paw withdrawal","ZFD rats [4]; ZFD rats, 1 mg/kg s.c., 2 hr",1.70
same,"Manual von Frey, threshold for paw withdrawal","ZFD rats [4]; ZFD rats, 1 mg/kg s.c., 4 hr",2.07
same,"Manual von Frey, threshold for paw withdrawal","ZFD rats [4]; ZFD rats, 3 mg/kg s.c., 0 hr",2.22
same,"Manual von Frey, threshold for paw withdrawal","ZFD rats [4]; ZFD rats, 3 mg/kg s.c., 1 hr",6.48
same,"Manual von Frey, threshold for paw withdrawal","ZFD rats [4]; ZFD rats, 3 mg/kg s.c., 2 hr",10.15
same,"Manual von Frey, threshold for paw withdrawal","ZFD rats [4]; ZFD rats, 10 mg/kg s.c., 0 hr",1.71
same,"Manual von Frey, threshold for paw withdrawal","ZFD rats [4]; ZFD rats, 10 mg/kg s.c., 1 hr",6.97
same,"Manual von Frey, threshold for paw withdrawal","ZFD rats [4]; ZFD rats, 10 mg/kg s.c., 2 hr",13.47
same,"Manual von Frey, threshold for paw withdrawal","ZFD rats [4]; ZFD rats, 10 mg/kg s.c., 4 hr",9.25
same,NR2B phosphorylation at Tyr1472,NR2B,no significant effect
same,pain responses in early or late phase of the formalin test,ZFD rats [5],no effect
same,Mean Behavior Rating (0-4),"C57 mice; po, 3 mg/kg",0.9 and 0.8 and 1.5
same,Mean Behavior Rating (0-4),"C57 mice; sc, 1 mg/kg",1.0 and 1.9 and 1.1

# — US20220184072A1 (priority 2019, published 2022)
